The source of these data is patent US10385034B2, “Flavonoid IL-17A inhibitors” (THE CLEVELAND CLINIC FOUNDATION, priority 2014, dated 2019).

“Also recorded” adds a separate entry of the source. Read-outs that look alike come from different tables or passages of the source.

In experiment [1] the target is T1, IL-17A-IL-17RA binding (Homo sapiens, UniProt Q96F46).
T1 construct: human IL-17RA-Fc (extracellular domain 1-322 AA fused with Fc region of human IgG1 at the C-terminus); purchased Sino Biological Inc
T1 sequence (Q96F46 33-322): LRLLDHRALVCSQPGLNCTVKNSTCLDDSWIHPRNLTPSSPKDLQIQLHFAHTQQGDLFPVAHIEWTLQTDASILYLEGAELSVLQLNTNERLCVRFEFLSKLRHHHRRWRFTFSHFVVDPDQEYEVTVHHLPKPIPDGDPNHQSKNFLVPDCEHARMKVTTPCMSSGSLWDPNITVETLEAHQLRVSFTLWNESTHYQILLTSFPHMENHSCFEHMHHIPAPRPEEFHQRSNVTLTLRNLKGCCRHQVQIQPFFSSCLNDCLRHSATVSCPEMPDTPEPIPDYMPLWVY
The experiment in a line: IL-17A-IL-17RA binding assay (ELISA). The following applies: for IC50: in vitro inhibition assay; for Inhibition of IL-17A-IL-17RA binding: serial dilutions of compound. Here is the method: IL-17A-IL-17RA binding assay. ELISA plates were coated with human IL-17A or IL-17E (2 μg/ml in PBS). Human IL-17RA-Fc or human IL-17RB-Fc (150 ng/ml) were added and incubated for 1 h, followed by incubation with human HRP-conjugated anti human IgG Fc secondary antibody for 1 h. ELISA were finally developed using tetramethylbenzidine substrate.

The target of experiment [2] is T2, recombinant human IL-17RA ectodomain (Homo sapiens, UniProt Q96F46).
T2 construct: The recombinant human IL-17RA ectodomain was expressed in baculovirus-infected Sf-9 cells; made in house; host or cells: baculovirus-infected Sf-9 cells
T2 sequence (Q96F46 33-320 limits assumed): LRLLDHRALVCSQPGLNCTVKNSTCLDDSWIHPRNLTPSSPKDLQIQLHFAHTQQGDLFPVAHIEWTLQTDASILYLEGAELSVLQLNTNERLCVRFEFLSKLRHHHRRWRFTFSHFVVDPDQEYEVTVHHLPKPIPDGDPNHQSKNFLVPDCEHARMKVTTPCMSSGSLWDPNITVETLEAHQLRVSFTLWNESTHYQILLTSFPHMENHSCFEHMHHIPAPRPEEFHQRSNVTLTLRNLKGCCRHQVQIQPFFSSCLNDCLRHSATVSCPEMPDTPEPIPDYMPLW
The experiment in a line: Fluorescence binding measurement (fluorescence quenching). The conditions noted are these: one-site total binding fit. As for the experimental part:
Fluorescence binding measurement. The recombinant human IL-17RA ectodomain was expressed in baculovirus-infected Sf-9 cells and purified as described previously. Liu et al., Nat Commun 4, 1888 (2013). The compound A18 or A0 was obtained from NCI. The purified IL-17RA protein (final concentration at 1 uM) was mixed with various concentrations of compound A0 in the solution consisting of 20 mM Tris, pH 7.5, 150 mM NaCl, and 5% DMSO in a 96-well black flat-bottom microplate (Greiner Bio-One). The reaction mixtures were incubated at room temperature at 120 rpm for 10 min, and fluorescence intensity was measured on a 2300 EnSpire Multimode Plate Reader (PerkinElmer) with excitation (265 nm) and emission (336 nm) wavelengths for A18 or with excitation (240 nm) and emission (337 nm) wavelengths for A0. The fluorescence signal (relative fluorescence intensity) was obtained by subtracting the background fluorescence of buffer and compound A0, and plotted as a function of the concentration of compound A0. The fluorescence quenching was observed as a consequence of the protein-ligand interaction at dose-dependent concentrations of compound A0, and the binding constant of compound A0 to IL-17RA was estimated by one-site total binding fit model (GraphPad Prism).

Experiment [3] has as its system human mammary epithelial cells (HMEC). The experiment in a line: IL-17A-induced CXCL1 (Groα) production, ELISA. It is filed as cell-based. The following applies: IL-17 100 ng/ml, 24 h. An excerpt: (§1) Reagents, cell culture and mice. Purified proteins of human IL-17A, human IL-17E (IL-25), human IL-17RA-Fc (extracellular domain 1-322 AA fused with Fc region of human IgG1 at the C-terminus), human IL-17RB-Fc (extracellular domain 1-289 AA fused with Fc region of human IgG1 at the C-terminus), human horseradish peroxidase (HRP)-conjugated IgG Fc secondary antibody were purchased from Sino Biological Inc. Human and mouse IL-17A and mouse IL-23 used for cell culture and animal injection were purchased from R&D Systems. Human mammary epithelial cells were maintained in Medium 171 plus mammary epithelial growth supplement (MEGS) purchased from Invitrogen, which contain bovine pituitary extract (BPE) (0.4% v/v), recombinant human insulin-like growth factor-I (1 μg/ml), hydrocortisone (0.5 μg/ml) and human epidermal growth factor (3 ng/ml). A549 cells were maintained in RPMI supplemented with 10% FCS and 100 U/ml penicillin and 100 μg/ml streptomycin. All mice were obtained from Jackson laboratory.
(§2) ELISA. Groα and IL-17A levels were assayed by ELISA kits (R&D systems) according to the manufacturer's instruction.

Experiment [4] has as its system IL-17F-induced gene expression. The experiment can be described thus: IL-17F-induced gene expression in epithelial cells. It is filed as cell-based, human. The following applies: data not shown.
In experiment [5] the test system is A549 cells. The experiment in a line: IL-17A-induced CXCL1 (Groα) production, ELISA. It is filed as cell-based, human. The conditions noted are these: A549, IL-17 100 ng/ml, 24 h.
Text: as §1, §2

Experiment [6] deals with psoriasis. The conditions noted are these: patients; cited from earlier work.
The test system of experiment [7] is multiple sclerosis. The conditions noted are these: 6-month, placebo-controlled trial, 73 patients; cited from earlier work.
Where [8] appears, read: read-out: IC50, IL-17A-IL-17RA binding inhibition assay.
The mark [9] stands for this setting: read-out: IC50, IL-17A-IL-17RA binding assay.

`Oc1cc(O)c2c(c1)O[C@@H](c1ccc(O)c(O)c1)[C@H](O)C2` [A0, (2S,3R)-2-(3,4-dihydroxyphenyl)-3,4-dihydro-2H-chromene-3,5,7-triol]: the IC50 in experiment [1] (setting [8]) stood at 956 nM. Further, the “Inhibition of IL-17A-IL-17RA binding” value in experiment [1] is “excellent inhibition efficacy; also recorded: great inhibition efficacy”. In experiment [2], the “Binding constant to IL-17RA” value is “in the same range as A18”. The “IL-17A-mediated CXCL1 production” value in experiment [3] and in experiment [5] was “greatly inhibited” throughout. Besides, the IL-17F-induced gene expression result in experiment [4] is listed as “able to block”.

Turning to `Oc1ccc2cc(O)c(-c3ccc(O)c(O)c3)[o+]c2c1` [A18Δ5OH], in experiment [1] (setting [9]), the IC50 is above 30000 nM.

As for `OC[C@H]1O[C@@H](Oc2cc3c(O)cc(O)cc3[o+]c2-c2ccc(O)c(O)c2)[C@H](O)[C@@H](O)[C@@H]1O` [cyanidin-3-O-glucoside, reference compound], in experiment [1] (setting [8]), the IC50 was determined as 96.4 nM.

`Oc1cc(O)c2ccc(-c3ccc(O)c(O)c3)[o+]c2c1` [luteolinidin, reference compound]: in experiment [1] (setting [8]), the IC50 was 198 nM.

As for `Oc1ccc(-c2[o+]c3cc(O)cc(O)c3cc2O)cc1` [pelargonidin, reference compound], the IC50 in experiment [1] (setting [9]) is above 100000 nM.

Take `O=C(O)c1ccc(O)c(O)c1` [photocatechuic acid, reference compound]: the “Inhibition of IL-17A-IL-17RA binding” value in experiment [1] is given as “greatly reduced inhibitory activity”.

On to “secukinumab: Anti-IL17A antibody (Cosentyx/secukinumab from Novartis)”, for which, in experiment [6], the “Efficacy for psoriasis” value is “extreme efficacy” and the “Responding rate in psoriasis” value is “greater than 85%”. In experiment [7], the MS-type brain lesions result is “significantly lowered” and the Relapse rates result is “trend toward reduced”.
